system: Jurkat FADD (−/−) Cells; test: TNF-α induced necroptosis of Jurkat FADD-deficient cells (CellTiter-Glo cell survival); type: cell-based, human; conditions: Homo sapiens, Jurkat, 13 h
Experimental: 1. Cell Activity Testing System (TNF-α Induces the Necroptosis of Jurkat Cells, the Human Leukemia Cells Deficient in FADD).
(1) Cell culture: Jurkat FADD-deficient cells were cultured in an RPMI 1640 medium with 10% fetal bovine serum (FBS), 100 U/mL penicillin, and 100 […]. The cells were cultured in a cell culture incubator at 37° C. with 5% CO2. And all the cells were cryopreserved in a complete medium containing 5-10% DMSO. Medium change and passage were performed 3-4 times per week.
(4) Experimental scheme: The system of TNF-α inducing the necroptosis of Jurkat FADD-deficient cells was used to screen for compounds with RIPKl kinase inhibitory activity.
Jurkat FADD-deficient cells were evenly inoculated into a 384-well plate with each well added with a 40 μL complete culture medium, followed by the addition of 5 μL of the under-testing compound to each well. The initial concentration of the compounds was set at 25 μM (for some compounds with higher activity, the initial concentration was set at 0.5 μM), with a three-fold gradient dilution, totaling 12 gradient points. Three replicate wells were set for each compound. In addition, there was a blank control group and a control group with TNFα stimulation only. After the compound was added, the mixture needed to be centrifuged and incubated in a cell culture incubator at 37° C. containing 5% CO2 for 1 hour. After that, 5 μL of 5 ng/mL TNFα was added to stimulate the occurrence of necroptosis. After centrifugation and mixing, the mixture was placed in the cell culture incubator for 13 hours (until the cell death rate reaches 65% in the group with only TNF-α), with a total volume of 50 μL per well. Then, the steps below were followed to test the cell survival rate.
The CellTiter-Glo® Buffer was removed from the reagent kit, equilibrated to room temperature, and used to dissolve the CellTiter-Glo® Substrate. The CellTiter-Glo® Reagent obtained could be directly used for the experiment.
15 μL of CellTiter-Glo® Reagent which has been equilibrated to room temperature was added to each well, and incubated in the dark for 15 minutes. After that, a microplate reader (Enspire Multimode Plate Reader of PerkinElmer, USA) was used to measure the chemiluminescence.

| SMILES | IC50 |
| --- | --- |
| CN1C(=O)[C@@H](NC(=O)c2nnc(Cc3ccccc3)[nH]2)Cn2cc(C(=O)O)c3cccc1c32 [T-94, (S)-3-(5-benzyl-4H-1,2,4-triazole-3-carboxamide)-1-methyl-2-oxo-1,2,3,4-tetrahydro-[1,4] diazabicyclo[3,2,1-hi] indole-7-carboxylic Acid] | > 1 µM |
| COC(=O)c1cn2c3c(cccc13)N(C)C(=O)[C@@H](NC(=O)c1nnc(Cc3ccccc3)[nH]1)C2 [T-95, Methyl (S)-3-(5-benzyl-4H-1,2,4-triazole-3-carboxamide)-1-methyl-2-oxo-1,2,3,4-tetrahydro-[1,4] diazepine [3,2,1-hi] indole-7-carboxylate] | 0.1 to 1 µM |

same assay, conditions: Homo sapiens; TNF-α induced necroptosis, Jurkat FADD-deficient cells, 13 hours, CellTiter-Glo; read-out: IC50

| SMILES | IC50 |
| --- | --- |
| CNS(=O)(=O)c1cccnc1-n1cc2c3c(cccc31)N(C)C(=O)C(NC(=O)c1nnc(Cc3ccccc3)[nH]1)C2 (racemic) [T-75, (±)-5-benzyl-N-(1-methyl-6-(3-(N-methylsulfamoyl)pyridin-2-yl)-2-oxo-2,3,4,6-tetrahydro-1H-azacyclo [4,3,2-cd]indol-3-yl)-4H-1,2,4-triazole-3-carboxamide] | 0.01 to 0.1 µM |
| CN1C(=O)C(NC(=O)c2nnc(Cc3ccccc3)[nH]2)Cc2cn(C(=O)C(C)(C)C)c3cccc1c23 (racemic) [T-39, (±)-5-benzyl-N-(1-methyl-2-oxo-6-pivaloyl-2,3,4,6-tetrahydro-1H-azacyclo [4,3,2-cd]indol-3-yl)-4H-1,2,4-triazole-3-carboxamide] | 0.01 to 0.1 µM |
| CCOc1cccnc1-n1cc2c3c(cccc31)N(C)C(=O)C(NC(=O)c1nnc(Cc3ccccc3)[nH]1)C2 (racemic) [T-67, (±)-5-benzyl-N-(6-(3-ethoxypyridin-2-yl)-1-methyl-2-oxy-2,3,4,6-tetrahydro-1H-azacyclo [4,3,2-cd]indol-3-yl)-4H-1,2,4-triazole-3-carboxamide] | < 0.01 µM |
| CN1C(=O)C(NC(=O)c2nnc(Cc3ccccc3)[nH]2)Cc2cn(-c3ncccc3O)c3cccc1c23 (racemic) [T-47, (±)-5-benzyl-N-(6-(3-hydroxypyridin-2-yl)-1-methyl-2-oxo-2,3,4,6-tetrahydro-1H-azacyclo [4,3,2-cd]indol-3-yl)-4H-1,2,4-triazole-3-carboxamide] | 0.1 to 1 µM |
| CC(C)OC(=O)c1cccnc1-n1cc2c3c(cccc31)N(C)C(=O)C(NC(=O)c1nnc(Cc3ccccc3)[nH]1)C2 (racemic) [T-104, (±)-2-(3-(5-benzyl-4H-1,2,4-triazole-3-carboxamide)-1-methyl-2-oxo-1,2,3,4-tetrahydro-6H-azacyclo [4,3,2-cd]indol-6-yl)isopropyl Nicotinate] | 0.01 to 0.1 µM |
| CN1C(=O)C(NC(=O)c2nnc(Cc3ccccc3)[nH]2)Cn2cc(-c3cccnc3)c3cccc1c32 (racemic) [T-17, (±)-5-benzyl-N-(1-methyl-2-oxo-7-(pyridin-3-yl)-1,2,3,4-tetrahydro-[1,4]diazepino [3,2,1-hi]indol-3-yl)-4H-1,2,4-triazole-3-carboxamide] | 0.01 to 0.1 µM |
| CN1C(=O)C(NC(=O)c2nnc(Cc3ccccc3)[nH]2)Cn2cc(Br)c3ccc(Br)c1c32 (racemic) [T-79, (±)-5-benzyl-N-(7,10-dibromo-1-methyl-2-oxo-1,2,3,4-tetrahydro-[1,4]diazepino [3,2,1-hi]indol-3-yl)-4H-1,2,4-triazole-3-carboxamide] | > 1 µM |
| CN1C(=O)C(NC(=O)c2nnc(Cc3ccccc3)[nH]2)Cc2c[nH]c3cncc1c23 (racemic) [T-130, (±)-5-benzyl-N-(6-methyl-7-oxo-6,7,8,9-tetrahydro-2H-2,3,6-triazabenzene[cd]azulene-8-yl)-4H-1,2,4-triazol-3-carboxamide] | > 1 µM |
| CN1C(=O)C(NC(=O)c2nnc(Cc3ccccc3)[nH]2)Cc2cn(S(=O)(=O)c3ccccc3)c3cccc1c23 (racemic) [T-21, (±)-5-benzyl-N-(1-methyl-2-oxo-6-(benzenesulfonyl)-2,3,4,6-tetrahydro-1H-aza [4,3,2-cd]indol-3-yl)-4H-1,2,4-triazole-3-carboxamide] | 0.1 to 1 µM |
| CN1C(=O)C(NC(=O)c2nnc(Cc3ccccc3)[nH]2)Cc2cn(-c3cncn3C)c3cccc1c23 (racemic) [T-74, (±)-5-benzyl-N-(1-methyl-6-(1-methyl-1H-imidazol-5-yl)-2-oxo-2,3,4,6-tetrahydro-1H-azacyclo [4,3,2-cd]indol-3-yl)-4H-1,2,4-triazole-3-carboxamide] | < 0.01 µM |
| CN1C(=O)[C@@H](NC(=O)c2nnc(Cc3ccccc3)[nH]2)Cn2cc(-c3cnn(CC(F)(F)F)c3)c3cccc1c32 [T-124, (S)-5-benzyl-N-(1-methyl-2-oxo-7-(1-(2,2,2-trifluoroethyl)-1H-pyrazol-4-yl)-1,2,3,4-tetrahydro-[1,4]diazepine [3,2,1-hi]indol-3-yl)-4H-1,2,4-triazole-3-carboxamide] | 0.01 to 0.1 µM |
| CN1C(=O)C(NC(=O)c2nnc(Cc3ccccc3)[nH]2)Cn2cc(Br)c3cccc1c32 (racemic) [T-11, (±)-5-benzyl-N-(7-bromo-1-methyl-2-oxo-1,2,3,4-tetrahydro-[1,4]diazepino [3,2,1-hi]indol-3-yl)-4H-1,2,4-triazole-3-carboxamide] | 0.01 to 0.1 µM |
| CN1C(=O)C(NC(=O)c2nnc(Cc3ccccc3)[nH]2)Cc2cn(-c3ncccc3CF)c3cccc1c23 (racemic) [T-54, (±)-5-benzyl-N-(6-(3-(fluoromethyl)pyridin-2-yl)-1-methyl-2-oxo-2,3,4,6-tetrahydro-1H-azacyclo [4,3,2-cd]indol-3-yl)-4H-1,2,4-triazole-3-carboxamide] | < 0.01 µM |
| CSc1cn2c3c(cccc13)N(C)C(=O)C(NC(=O)c1nnc(Cc3ccccc3)[nH]1)C2 (racemic) [T-4, (±)-5-benzyl-N-(1-methyl-7-(methylthio)-2-carbonyl-1,2,3,4-tetrahydro-[1,4]diazepino [3,2,1-hi]indol-3-yl)-4H-1,2,4-triazole-3-carboxamide] | 0.01 to 0.1 µM |
| CN1C(=O)C(NC(=O)c2nnc(Cc3ccccc3)[nH]2)Cc2c[nH]c3cccc1c23 (racemic) [T-19, (±)-5-benzyl-N-(1-methyl-2-oxo-2,3,4,6-tetrahydro-1H-azacyclo [4,3,2-cd]indol-3-yl)-4H-1,2,4-triazole-3-carboxamide] | < 0.01 µM |
| CN1C(=O)C(NC(=O)c2nnc(Cc3ccccc3)[nH]2)Cn2cc(-c3cnn(C)c3)c3cccc1c32 (racemic) [T-15, (±)-5-benzyl-N-(1-methyl-7-(1-methyl-1H-pyrazol-4-yl)-2-oxy-1,2,3,4-tetrahydro-[1,4]diazepino [3,2,1-hi]indol-3-yl)-4H-1,2,4-triazole-3-carboxamide] | < 0.01 µM |
| COCCn1cc2c3c(cccc31)N(C)C(=O)C(NC(=O)c1nnc(Cc3ccccc3)[nH]1)C2 (racemic) [T-28, (±)-5-benzyl-N-(6-(2-methoxyethyl)-1-methyl-2-oxo-2,3,4,6-tetrahydro-1H-azacyclo [4,3,2-cd]indol-3-yl)-4H-1,2,4-triazole-3-carboxamide] | < 0.01 µM |
| CN1C(=O)C(NC(=O)c2nnc(Cc3ccccc3)[nH]2)Cc2cn(-c3nccc4ccccc34)c3cccc1c23 (racemic) [T-99, (±)-5-benzyl-N-(6-(isoquinolin-1-yl)-1-methyl-2-oxo-2,3,4,6-tetrahydro-1H-aza [4,3,2-cd]indol-3-yl)-4H-1,2,4-triazole-3-carboxamide] | < 0.01 µM |
| CN1C(=O)[C@@H](NC(=O)c2nnc(Cc3ccccc3)[nH]2)Cc2c[nH]c3nccc1c23 [T-71, (S)-5-benzyl-N-(6-methyl-7-oxo-6,7,8,9-tetrahydro-2H-2,3,6-triazabenzene[cd]azulene-8-yl)-4H-1,2,4-triazole-3-carboxamide] | 0.01 to 0.1 µM |
| CN1C(=O)C(N2CCc3c(nn(Cc4ccccc4)c3Cl)C2=O)Cc2cn(-c3ncccc3C(F)(F)F)c3cccc1c23 (racemic) [T-60, (±)-3-(2-benzyl-3-chloro-7-oxo-2,4,5,7-tetrahydro-6H-pyrazole [3,4-c]pyridin-6-yl)-1-methyl-6(3-(trifluoromethyl)pyridin-2-yl)-1,3,4,6-tetrahydro-2H-azepine [4,3,2-cd] indole-2-one] | < 0.01 µM |
| Cc1nn(C)c(C)c1-c1cn2c3c(cccc13)N(C)C(=O)C(NC(=O)c1nnc(Cc3ccccc3)[nH]1)C2 (racemic) [T-114, (±)-5-benzyl-N-(1-methyl-2-oxo-7-(1,3,5-trimethyl-1H-pyrazol-4-yl)-1,2,3,4-tetrahydro-[1,4]diazepine [3,2,1-hi]indol-3-yl)-4H-1,2,4-triazole-3-carboxamide] | < 0.01 µM |
| CCOC(=O)c1cccnc1-n1cc2c3c(cccc31)N(C)C(=O)C(NC(=O)c1nnc(Cc3ccccc3)[nH]1)C2 (racemic) [T-103] | 0.01 to 0.1 µM |
| COC(=O)c1cccnc1-n1cc2c3c(cccc31)N(C)C(=O)C(NC(=O)c1nnc(Cc3ccccc3)[nH]1)C2 (racemic) [T-43, (±)-2-(3-(5-benzyl-4H-1,2,4-triazole-3-carboxamide)-1-methyl-2-oxo-1,2,3,4-tetrahydro-6H-azacyclo [4,3,2-cd]indol-6-yl)nicotinate] | < 0.01 µM |
